Experimental data as given in patent publication US20220363686A1 (AiCuris GmbH & Co. KG, priority 2018, published 2022).
pEC50, pIC50: −log10 of the molar value.

Key:
HBV = test: Determination of HBV DNA from the supernatants of HepAD38 cells (anti-HBV activity); format: cell-based, hepatitis B virus; settings: Hepatitis B virus, HePAD38, 144 h, HBV DNA in HepAD38 supernatant, day 6, qPCR; read-out: Cell Activity
Description: The anti-HBV activity was analysed in the stable transfected cell line HepAD38, which has been described to secrete high levels of HBV virion particles (Ladner et al., 1997). In brief, HepAD38 cells were cultured at 37° C. at 5% CO2 and 95% humidity in 200 μl maintenance medium, which was Dulbecco's modified Eagle's medium/Nutrient Mixture F-12 (Gibco, Karlsruhe), 10% fetal bovine serum (PAN Biotech Aidenbach) supplemented with 50 μg/ml penicillin/streptomycin (Gibco, Karlsruhe), 2 mM L-glutamine (PAN Biotech, Aidenbach), 400 μg/ml G418 (AppliChem, Darmstadt) and 0.3 μg/ml tetracycline. Cells were subcultured once a week in a 1:5 ratio, but were usually not passaged more than ten times. For the assay 60,000 cells were seeded in maintenance medium without any tetracycline into each well of a 96-well plate and treated with serial half-log dilutions of test compound. To minimize edge effects the outer 36 wells of the plate were not used but were filled with assay medium. On each assay plate six wells for the virus control (untreated HepAD38 cells) and six wells for the cell control (HepAD38 cells treated with 0.3 μg/ml tetracycline) were allocated, respectively. In addition, one plate set with reference inhibitors like BAY 41-4109, entecavir, and lamivudine instead of screening compounds were prepared in each experiment. In general, experiments were performed thrice in triplicates. At day 6 HBV DNA from 100 μl filtrated cell culture supernatant (AcroPrep Advance 96 Filter Plate, […] Supor membran, PALL GmbH, Dreieich) was automatically purified on the MagNa Pure LC instrument using the MagNA Pure 96 DNA and Viral NA Small Volume Kit (Roche Diagnostics, Mannheim) according to the instructions of the manufacturer. EC50 values were calculated from relative copy numbers of HBV DNA In brief, 5 μl of the 100 μl eluate containing HBV DNA were subjected to PCR LC480 Probes Master Kit (Roche) together with 1 μM antisense primer […], 0.5 μM sense primer […], 0.3 μM hybprobes […]-FL and LC640-[…]-PH (TIBMolBiol, Berlin) to a final volume of 12.5 μl. The PCR was performed on the Light Cycler 480 real time system (Roche Diagnostics, Mannheim) using the following protocol: Pre-incubation for 1 min at 95° C., amplification: 40 cycles×(10 sec at 95° C., 50 sec at 60° C., 1 sec at 70° C.), cooling for 10 sec at 40° C. Viral load was quantitated against known standards using HBV plasmid DNA of pCH-9/3091 (Nassal et al., 1990, Cell 63: 1357-1363) and the LightCycler 480 SW 1.5 software (Roche Diagnostics, Mannheim) and ECso values were calculated using non-linear regression with GraphPad Prism 6 (GraphPad Software Inc., La Jolla, USA).

[1] = Cell viability assay (AlamarBlue); settings: human, HepAD38 cells
[2] = target: HBV core protein (C-terminal truncated core protein containing 149 amino acids of the N-terminal assembly domain) (UniProt P03146); test: Biochemical capsid assembly assay (fluorescence quenching); set-up: rows headed: Assembly Activity; other: BODIPY-FL labelled core protein, assembly started with NaCl, read after 6 min; settings: read-out: Assembly Activity; BODIPY-FL labelled core protein, assembly started with NaCl, read after 6 min
Sequence of HBV core protein (C-terminal truncated core protein containing 149 amino acids of the N-terminal assembly domain) (P03146 whole entry, the tested form may be a part): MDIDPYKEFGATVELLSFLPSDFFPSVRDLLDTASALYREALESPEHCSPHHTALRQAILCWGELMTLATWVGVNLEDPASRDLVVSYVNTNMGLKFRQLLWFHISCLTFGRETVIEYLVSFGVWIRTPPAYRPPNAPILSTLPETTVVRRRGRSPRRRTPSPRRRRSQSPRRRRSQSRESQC
Description: The screening for assembly effector activity was done based on a fluorescence quenching assay published by Zotnick et al. (2007). The C-terminal truncated core protein containing 149 amino acids of the N-terminal assembly domain fused to a unique cysteine residue at position 150 and was expressed in E. coli using the pET expression system (Merck Chemicals, Darmstadt). Purification of core dimer protein was performed using a sequence of size exclusion chromatography steps. In brief, the cell pellet from 1 L BL21 (DE3) Rosetta2 culture expressing the coding sequence of core protein cloned NdeI/XhoI into expression plasmid pET21b was treated for 1 h on ice with a native lysis buffer (Qproteome Bacterial Protein Prep Kit; Qiagen, Hilden). After a centrifugation step the supernatant was precipitated during 2 h stirring on ice with 0.23 g/ml of solid ammonium sulfate. Following further centrifugation the resulting pellet was resolved in buffer A (100 mM Tris, pH 7.5; 100 mM NaCl; 2 mM DTT) and was subsequently loaded onto a buffer A equilibrated CaptoCore 700 column (GE HealthCare, Frankfurt). The column flow through containing the assembled HBV capsid was dialyzed against buffer N (50 mM NaHCO3 pH 9.6; 5 mM DTT) before urea was added to a final concentration of 3M to dissociate the capsid into core dimers for 1.5 h on ice. The protein solution was then loaded onto a IL Sephacryl S300 column. After elution with buffer N core dimer containing fractions were identified by SDS-PAGE and subsequently pooled and dialyzed against 50 mM HEPES pH 7.5; 5 mM DTT. To improve the assembly capacity of the purified core dimers a second round of assembly and disassembly starting with the addition of 5 M NaCl and including the size exclusion chromatography steps described above was performed. From the last chromatography step core dimer containing fractions were pooled and stored in aliquots at concentrations between 1.5 to 2.0 mg/ml at −80° C.
Immediately before labelling the core protein was reduced by adding freshly prepared DTT in a final concentration of 20 mM. After 40 min incubation on ice storage buffer and DTT was removed using a Sephadex G-25 column (GE HealthCare, Frankfurt) and 50 mM HEPES, pH 7.5. For labelling 1.6 mg/ml core protein was incubated at 4° C. and darkness overnight with BODIPY-FL maleimide (Invitrogen, Karlsruhe) in a final concentration of 1 mM. After labelling the free dye was removed by an additional desalting step using a Sephadex G-25 column. Labelled core dimers were stored in aliquots at 4° C. In the dimeric state the fluorescence signal of the labelled core protein is high and is quenched during the assembly of the core dimers to high molecular capsid structures. The screening assay was performed in black 384 well microtiter plates in a total assay volume of 10 μl using 50 mM HEPES pH 7.5 and 1.0 to 2.0 μM labelled core protein. Each screening compound was added in 8 different concentrations using a 0.5 log-unit serial dilution starting at a final concentration of 100 μM, 31.6 μM or 10 μM, In any case the DMSO concentration over the entire microtiter plate was 0.5%. The assembly reaction was started by the injection of NaCl to a final concentration of […] which induces the assembly process to approximately 25% of the maximal quenched signal. 6 min after starting the reaction the fluorescence signal was measured using a Clariostar plate reader (BMG Labtech, Ortenberg) with an excitation of 477 nm and an emission of 525 nm. As 100% and 0% assembly control HEPES buffer containing 2.5 M and 0 M NaCl was used. Experiments were performed thrice in triplicates. EC50 values were calculated by non-linear regression analysis using the Graph Pad Prism 6 software (GraphPad Software, La Jolla, USA).

O=C(c1cc2c(F)cc(F)cc2[nH]1)N1CCn2ncc(C3CCC3)c2C1 [Example 5, 2-{3-cyclobutyl-4H,5H,6H,7H-pyrazolo[1,5-a]pyrazine-5-carbonyl}-4,6-difluoro-1H-indole]
pEC50 (HBV): > 6.00
CC50 at 6 days [1]: > 10 µM
pIC50 [2]: > 5.30

O=C(c1cc2ccccc2[nH]1)N1CCn2ncc(C3CCC3)c2C1 [Example 6, 2-{3-cyclobutyl-4H,5H,6H,7H-pyrazolo[1,5-a]pyrazine-5-carbonyl}-1H-indole]
pEC50 (HBV): > 6.00
CC50 at 6 days [1]: > 10 µM
pIC50 [2]: > 5.30

COCC1(N(C)C(=O)c2cnn3c2CN(C(=O)c2cc4c(Cl)cccc4[nH]2)CC3)CC1 [Example 7, 5-(4-chloro-1H-indole-2-carbonyl)-N-[1-(methoxymethyl)cyclopropyl]-N-methyl-4H,5H,6H,7H-pyrazolo[1,5-a]pyrazine-3-carboxamide]
pEC50 (HBV): > 6.00
CC50 at 6 days [1]: > 10 µM
pIC50 [2]: > 5.30

COCC1(N(C)C(=O)c2cnn3c2CN(C(=O)c2cc4c(F)cc(F)cc4[nH]2)CC3)CC1 [Example 8, 5-(4,6-difluoro-1H-indole-2-carbonyl)-N-[1-(methoxymethyl)cyclopropyl]-N-methyl-4H,5H,6H,7H-pyrazolo[1,5-a]pyrazine-3-carboxamide]
pEC50 (HBV): > 6.00
CC50 at 6 days [1]: > 10 µM
pIC50 [2]: > 5.30

COCC1(N(C)C(=O)c2cnn3c2CN(C(=O)c2cc4ccccc4[nH]2)CC3)CC1 [Example 9, 5-(1H-indole-2-carbonyl)-N-[1-(methoxymethyl)cyclopropyl]-N-methyl-4H,5H,6H,7H-pyrazolo[1,5-a]pyrazine-3-carboxamide]
pEC50 (HBV): > 6.00
CC50 at 6 days [1]: > 10 µM
pIC50 [2]: > 5.30

COCC1(CNC(=O)c2cnn3c2CN(C(=O)c2cc4ccccc4[nH]2)CC3)CC1 [Example 10, 5-(1H-indole-2-carbonyl)-N-{[1-(methoxymethyl)cyclopropyl]methyl}-4H,5H,6H,7H-pyrazolo[1,5-a]pyrazine-3-carboxamide]
pEC50 (HBV): 5.00 to 6.00
CC50 at 6 days [1]: > 10 µM
pIC50 [2]: 5.00 to 5.30

CC(C)OCC1(N(C)C(=O)c2cnn3c2CN(C(=O)c2cc4ccccc4[nH]2)CC3)CC1 [Example 11, 5-(1H-indole-2-carbonyl)-N-methyl-N-{1-[(propan-2-yloxy)methyl]cyclopropyl}-4H,5H,6H,7H-pyrazolo[1,5-a]pyrazine-3-carboxamide]
pEC50 (HBV): > 6.00
CC50 at 6 days [1]: > 10 µM
pIC50 [2]: > 5.30

CCOCC1(N(C)C(=O)c2cnn3c2CN(C(=O)c2cc4ccccc4[nH]2)CC3)CC1 [Example 12, N-[1-(ethoxymethyl)cyclopropyl]-5-(1H-indole-2-carbonyl)-N-methyl-4H,5H,6H,7H-pyrazolo[1,5-a]pyrazine-3-carboxamide]
pEC50 (HBV): > 6.00
CC50 at 6 days [1]: > 10 µM
pIC50 [2]: > 5.30

CN(C(=O)c1cnn2c1CN(C(=O)c1cc3c(Cl)cccc3[nH]1)CC2)C1(CO)CC1 [Example 13, 5-(4-chloro-1H-indole-2-carbonyl)-N-[1-(hydroxymethyl)cyclopropyl]-N-methyl-4H,5H,6H,7H-pyrazolo[1,5-a]pyrazine-3-carboxamide]
pEC50 (HBV): > 6.00
CC50 at 6 days [1]: > 10 µM
pIC50 [2]: > 5.30

CCc1cc(F)cc2[nH]c(C(=O)N3CCn4ncc(C(=O)N(C)C5(CO)CC5)c4C3)cc12 [Example 14, 5-(4-ethyl-6-fluoro-1H-indole-2-carbonyl)-N-[1-(hydroxymethyl)cyclopropyl]-N-methyl-4H,5H,6H,7H-pyrazolo[1,5-a]pyrazine-3-carboxamide]
pEC50 (HBV): > 6.00
CC50 at 6 days [1]: > 10 µM
pIC50 [2]: > 5.30

CN(C(=O)c1cnn2c1CN(C(=O)c1cc3ccccc3[nH]1)CC2)C1(CO)CC1 [Example 15, N-[1-(hydroxymethyl)cyclopropyl]-5-(1H-indole-2-carbonyl)-N-methyl-4H,5H,6H,7H-pyrazolo[1,5-a]pyrazine-3-carboxamide]
pEC50 (HBV): > 6.00
CC50 at 6 days [1]: > 10 µM
pIC50 [2]: > 5.30

CN(C(=O)c1cnn2c1CN(C(=O)c1cc3ccccc3[nH]1)CC2)C1(COC(F)F)CC1 [Example 16, N-{1-[(difluoromethoxy)methyl]cyclopropyl}-5-(1H-indole-2-carbonyl)-N-methyl-4H,5H,6H,7H-pyrazolo[1,5-a]pyrazine-3-carboxamide]
pEC50 (HBV): > 6.00
CC50 at 6 days [1]: > 10 µM
pIC50 [2]: > 5.30

O=C(c1cc2ccccc2[nH]1)N1CCn2ncc(C(=O)N3CC(F)(F)CC34CC4)c2C1 [Example 19, 2-(3-{6,6-difluoro-4-azaspiro[2.4]heptane-4-carbonyl}-4H,5H,6H,7H-pyrazolo[1,5-a]pyrazine-5-carbonyl)-1H-indole]
pEC50 (HBV): > 6.00
CC50 at 6 days [1]: > 10 µM
pIC50 [2]: > 5.30

CC1Cn2ncc(C(=O)N(C)C3(COC(F)F)CC3)c2CN1C(=O)c1cc2ccccc2[nH]1 (stereo not drawn) [Example 20, N-{1-[(difluoromethoxy)methyl]cyclopropyl}-5-(1H-indole-2-carbonyl)-N,6-dimethyl-4H,5H,6H,7H-pyrazolo[1,5-a]pyrazine-3-carboxamide]
pEC50 (HBV): > 6.00
CC50 at 6 days [1]: > 10 µM
pIC50 [2]: > 5.30

CN(C(=O)c1cnn2c1CN(C(=O)c1cc3c(F)c(F)ccc3[nH]1)CC2)C1(COC(F)F)CC1 [Example 21, 5-(4,5-difluoro-1H-indole-2-carbonyl)-N-{1-[(difluoromethoxy)methyl]cyclopropyl}-N-methyl-4H,5H,6H,7H-pyrazolo[1,5-a]pyrazine-3-carboxamide]
pEC50 (HBV): > 6.00
CC50 at 6 days [1]: > 10 µM
pIC50 [2]: > 5.30
